In patent US11512079B2, “Heterocycle substituted pyridine derivative antifungal agents” (Amplyx Pharmaceuticals, Inc., priority 2017, dated 2022) one finds MIC and minimal effective concentration data, which are given here for 22 molecules.

What all share (format): cell-based
Test [1] concerns Cryptococcus neoformans H99. In words: In vitro antifungal assay (Example IX), microdilution broth, MIC. The following applies: minimum inhibitory concentration (≥50% inhibition), 35° C., 72 h, RPMI1640. In a few lines:
(§1)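 Yeast inocula (2.5×10^3 cells/mL, RPMI1640) were exposed to twofold compound series reaching 2-0.0019 μg/mL final, per CLSI yeast methodology. Incubation at 35° C. ran 40-48 h for Candida albicans 90028 and 72 h for Cryptococcus neoformans H99. MIC endpoints were confirmed by absorbance at 600 nm.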
A general note: Dilution methods test growth across graded concentrations, often in twofold steps.

A further test deals with Candida albicans 90028. The description is as above. The settings on record: minimum inhibitory concentration (≥50% inhibition), 35° C., 40-48 h, RPMI1640. Put shortly:
as §1

Another test deals with Cryptococcus gattii. Described as above. The settings on record: minimum inhibitory concentration (≥50% inhibition), 35° C., 72 h (Cryptococcus), RPMI1640. In a few lines:
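MIC was determined from OD600 after 72 h at 35 °C for Cryptococcus, in RPMI1640 inoculated at 2.5×10^3 cells/mL. Compounds were tested as a 2-fold series from 2 to 0.0019 μg/mL final, added from DMSO intermediates at a 100-fold dilution.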

In test [2] the test system is Rhizomucor pusillus 46342. In words: In vitro antifungal assay (Example IX), microdilution broth, MEC. The settings on record: minimum effective concentration (shortening of hyphae), 35° C., 40-48 h, RPMI1640. Put shortly:
(§2)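 Read-out is the minimum effective concentration: lowest compound level causing shorter hyphae than in DMSO controls, echinocandin-style. Broth microdilution used conidia or spores harvested from agar plates, cleared of mycelium and clumps, at a final 1-2×10^4 spores/mL in RPMI1640.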

In test [3] the test system is Aspergillus fumigatus MYA3626. Described as above. The following applies: minimum effective concentration (shortening of hyphae), 35° C., 40-48 h, RPMI1640. In a few lines:
as §2

Converted amounts (≈) assume the structure as drawn. Some results are limits rather than exact numbers.

Usually MIC stands for the least concentration at which growth counts as inhibited. The low end stands for greater potency, the high end for weaker potency. As a reminder, the minimal effective concentration is the lowest level tested that produced the effect sought.

For `Nc1ncccc1-c1cc(Cc2ccc(Cc3ccoc3)cc2)no1` [compound 120, 3-(3-(4-(furan-3-ylmethyl)benzyl)isoxazol-5-yl)pyridin-2-amine], the MIC (in test [1]; in the test on Candida albicans 90028; against Cryptococcus gattii) was 0.01 to 0.1 µg/mL (≈ 0.0302 to 0.302 µM) throughout. Also, the minimal effective concentration is 0.1 to 1 µg/mL in test [2] and at most 0.01 µg/mL in test [3].
Regarding `Nc1ncccc1-c1cc(Cc2ccc(Cc3ccco3)cc2)no1` [compound 121, 3-(3-(4-(furan-2-ylmethyl)benzyl)isoxazol-5-yl)pyridin-2-amine], the MIC (in test [1]; in the test with Candida albicans 90028; with Cryptococcus gattii) was 0.01 to 0.1 µg/mL (≈ 0.0302 to 0.302 µM) throughout. For the same molecule, the results for the minimal effective concentration in test [2] and in test [3] were 0.01 to 0.1 µg/mL and at most 0.01 µg/mL, respectively.
As for `Cc1ccc(Cc2ccc(Cc3cc(-c4cccnc4N)on3)cc2)o1` [compound 122, 3-(3-(4-((5-methylfuran-2-yl)methyl)benzyl)isoxazol-5-yl)pyridin-2-amine], the results for the MIC (in test [1]; with Candida albicans 90028; with Cryptococcus gattii) were 0.01 to 0.1 µg/mL (≈ 0.029 to 0.29 µM), at most 0.01 µg/mL and 0.01 to 0.1 µg/mL (≈ 0.029 to 0.29 µM), respectively. For the same molecule, the minimal effective concentration in test [2] is 0.01 to 0.1 µg/mL; in test [3], at most 0.01 µg/mL.
`Nc1ncccc1-c1cc(Cc2ccc(CC3=CCOC3)cc2)no1` [compound 123, 3-(3-(4-((2,5-dihydrofuran-3-yl)methyl)benzyl)isoxazol-5-yl)pyridin-2-amine]: the minimum inhibitory concentration (MIC) fell in the range of 0.1 to 1 µg/mL (≈ 0.3 to 3 µM) in test [1], 0.01 to 0.1 µg/mL (≈ 0.03 to 0.3 µM) with Candida albicans 90028 and 0.01 to 0.1 µg/mL (≈ 0.03 to 0.3 µM) with Cryptococcus gattii. In addition, the results for the minimal effective concentration in test [2] and in test [3] were above 1 µg/mL and 0.01 to 0.1 µg/mL, respectively.
With `Nc1ncccc1-c1cc(Cc2ccc(Cc3ccc(F)o3)cc2)no1` [compound 124, 3-(3-(4-((5-fluorofuran-2-yl)methyl)benzyl)isoxazol-5-yl)pyridin-2-amine], the MIC (in test [1]; in the test with Candida albicans 90028; against Cryptococcus gattii) was 0.01 to 0.1 µg/mL (≈ 0.0286 to 0.286 µM) throughout. In addition, the minimal effective concentration in test [2] and in test [3] was 0.01 to 0.1 µg/mL throughout.
Take `Nc1ncccc1-c1cc(Cc2cnc(SCc3ccccc3)nc2)no1` [compound 125, 3-(3-((2-(benzylthio)pyrimidin-5-yl)methyl)isoxazol-5-yl)pyridin-2-amine]: the figures for the MIC (in test [1]; in the test on Candida albicans 90028; against Cryptococcus gattii) were above 1 µg/mL, 0.1 to 1 µg/mL (≈ 0.266 to 2.66 µM) and above 1 µg/mL, respectively. The minimal effective concentration was above 1 µg/mL in test [2] and 0.1 to 1 µg/mL in test [3].
As for `Nc1ncccc1-c1cc(Cc2ccc(OCc3ccccc3F)nc2)no1` [compound 127, 3-(3-((6-((2-fluorobenzyl)oxy)pyridin-3-yl)methyl)isoxazol-5-yl)pyridin-2-amine], the MIC (in test [1]; in the test on Candida albicans 90028; against Cryptococcus gattii) was 0.01 to 0.1 µg/mL (≈ 0.0266 to 0.266 µM) each time. Further, the minimal effective concentration in test [2] is 0.1 to 1 µg/mL; in test [3] it was at most 0.01 µg/mL.
With `Nc1ncccc1-c1cc(Cc2ccc(Oc3cccc(F)c3)nc2)no1` [compound 130, 3-(3-((6-(3-fluorophenoxy)pyridin-3-yl)methyl)isoxazol-5-yl)pyridin-2-amine], the results for the MIC (in test [1]; against Candida albicans 90028; in the test with Cryptococcus gattii) were at most 0.01 µg/mL, 0.01 to 0.1 µg/mL (≈ 0.0276 to 0.276 µM) and 0.01 to 0.1 µg/mL (≈ 0.0276 to 0.276 µM), respectively. The minimal effective concentration is 0.1 to 1 µg/mL in test [2] and 0.01 to 0.1 µg/mL in test [3].
As for `Nc1ncccc1-c1cc(Cc2ccc(Oc3ccccc3F)nc2)no1` [compound 131, 3-(3-((6-(2-fluorophenoxy)pyridin-3-yl)methyl)isoxazol-5-yl)pyridin-2-amine], the MIC (in test [1]; against Candida albicans 90028; in the test with Cryptococcus gattii) was 0.01 to 0.1 µg/mL (≈ 0.0276 to 0.276 µM) each time. The minimal effective concentration in test [2] fell in the range of 0.1 to 1 µg/mL; in test [3] it was 0.01 to 0.1 µg/mL.
In the case of `Nc1ccc(-c2cc(Cc3ccc(OCc4ccccc4)cc3)no2)c(N)n1` [compound 132, 3-(3-(4-(benzyloxy)benzyl)isoxazol-5-yl)pyridine-2,6-diamine], the MIC (in test [1]; in the test with Candida albicans 90028; against Cryptococcus gattii) was 0.01 to 0.1 µg/mL (≈ 0.0269 to 0.269 µM) throughout. For the same molecule, the minimal effective concentration was 0.1 to 1 µg/mL in test [2] and at most 0.01 µg/mL in test [3].
Regarding `Nc1ccc(-c2cc(Cc3ccc(Oc4cccc(F)n4)cc3)no2)c(N)n1` [compound 134, 3-(3-(4-((6-fluoropyridin-2-yl)oxy)benzyl)isoxazol-5-yl)pyridine-2,6-diamine], the MIC lay within 0.01 to 0.1 µg/mL (≈ 0.0265 to 0.265 µM) in test [1], 0.1 to 1 µg/mL (≈ 0.265 to 2.65 µM) in the test with Candida albicans 90028 and 0.01 to 0.1 µg/mL (≈ 0.0265 to 0.265 µM) against Cryptococcus gattii. Besides, the minimal effective concentration in test [2] and in test [3] was 0.1 to 1 µg/mL each time.
As to `CC(C)=CCOc1ccc(Cc2cc(-c3ccc(N)nc3N)on2)cc1` [compound 135, 3-(3-(4-((3-methylbut-2-en-1-yl)oxy)benzyl)isoxazol-5-yl)pyridine-2,6-diamine], the MIC in test [1] was in the range of 0.01 to 0.1 µg/mL (≈ 0.0285 to 0.285 µM); against Candida albicans 90028, 0.1 to 1 µg/mL (≈ 0.285 to 2.85 µM); against Cryptococcus gattii, 0.1 to 1 µg/mL (≈ 0.285 to 2.85 µM). Besides, the minimal effective concentration lay in the range of 0.1 to 1 µg/mL in test [2] and 0.01 to 0.1 µg/mL in test [3].
Consider `Nc1ccc(-c2cc(Cc3ccc(CNc4ccccc4)cc3)no2)c(N)n1` [compound 136, 3-(3-(4-((phenylamino)methyl)benzyl)isoxazol-5-yl)pyridine-2,6-diamine], for which the MIC (in test [1]; against Candida albicans 90028; with Cryptococcus gattii) was 0.1 to 1 µg/mL (≈ 0.269 to 2.69 µM) throughout. Besides, the minimal effective concentration in test [2] and in test [3] was 0.01 to 0.1 µg/mL each time.
As for `Nc1ncccc1-c1cc(Cc2ccc(COc3cccc(F)n3)cc2)no1` [compound 137, 3-(3-(4-(((6-fluoropyridin-2-yl)oxy)methyl)benzyl)isoxazol-5-yl)pyridin-2-amine], the results for the MIC (in test [1]; against Candida albicans 90028; with Cryptococcus gattii) were 0.1 to 1 µg/mL (≈ 0.266 to 2.66 µM), 0.01 to 0.1 µg/mL (≈ 0.0266 to 0.266 µM) and 0.01 to 0.1 µg/mL (≈ 0.0266 to 0.266 µM), respectively. The minimal effective concentration in test [2] was above 1 µg/mL; in test [3], 0.01 to 0.1 µg/mL.
For the molecule `Nc1ncccc1-c1cc(Cc2ccc(Sc3ccccc3)nc2)no1` [compound 186, 3-(3-((6-(phenylthio)pyridin-3-yl)methyl)isoxazol-5-yl)pyridin-2-amine], the MIC in test [1] fell in the range of 0.1 to 1 µg/mL (≈ 0.277 to 2.77 µM); in the test on Candida albicans 90028 it was 0.01 to 0.1 µg/mL (≈ 0.0277 to 0.277 µM); in the test with Cryptococcus gattii, 0.01 to 0.1 µg/mL (≈ 0.0277 to 0.277 µM). For the same molecule, the minimal effective concentration was above 1 µg/mL in test [2] and 0.01 to 0.1 µg/mL in test [3].
Regarding `Nc1ncccc1-c1cc(Cc2ccc(OCc3ccc(F)cc3)nc2)no1` [compound 187, 3-(3-((6-((4-fluorobenzyl)oxy)pyridin-3-yl)methyl)isoxazol-5-yl)pyridin-2-amine], the MIC was 0.1 to 1 µg/mL (≈ 0.266 to 2.66 µM) in test [1], 0.1 to 1 µg/mL (≈ 0.266 to 2.66 µM) against Candida albicans 90028 and 0.01 to 0.1 µg/mL (≈ 0.0266 to 0.266 µM) against Cryptococcus gattii. Also, the minimal effective concentration in test [2] and in test [3] was 0.1 to 1 µg/mL each time.
With `Nc1ncccc1-c1cc(Cc2ccc(N3CCC3c3ccccc3)nc2)no1` (centres unmarked) [compound 188, 3-(3-((6-(2-phenylazetidin-1-yl)pyridin-3-yl)methyl)isoxazol-5-yl)pyridin-2-amine], the MIC (in test [1]; in the test on Candida albicans 90028; in the test on Cryptococcus gattii) was above 1 µg/mL in each case. The minimal effective concentration in test [2] is 0.1 to 1 µg/mL; in test [3], above 1 µg/mL.
With `Nc1ncccc1-c1cc(Cc2ccc(COc3cc(F)ccc3F)cc2)no1` [compound 189, 3-(3-(4-((2,5-difluorophenoxy)methyl)benzyl)isoxazol-5-yl)pyridin-2-amine], the MIC lay within 0.01 to 0.1 µg/mL (≈ 0.0254 to 0.254 µM) in test [1], 0.01 to 0.1 µg/mL (≈ 0.0254 to 0.254 µM) against Candida albicans 90028 and 0.1 to 1 µg/mL (≈ 0.254 to 2.54 µM) in the test on Cryptococcus gattii. For the same molecule, the minimal effective concentration in test [2] is above 1 µg/mL; in test [3], 0.01 to 0.1 µg/mL.
With `Nc1ncccc1-c1cc(Cc2ccc(COc3cc(F)cc(F)c3F)cc2)no1` [compound 190, 3-(3-(4-((2,3,5-trifluorophenoxy)methyl)benzyl)isoxazol-5-yl)pyridin-2-amine], the MIC (in test [1]; against Candida albicans 90028; in the test on Cryptococcus gattii) was 0.1 to 1 µg/mL (≈ 0.243 to 2.43 µM) in each case. The minimal effective concentration is above 1 µg/mL in test [2] and 0.1 to 1 µg/mL in test [3].
Take `Nc1ncccc1-c1cc(Cc2ccc(C(=O)c3ccccc3)cc2)no1` [compound 191, (4-((5-(2-aminopyridin-3-yl)isoxazol-3-yl)methyl)phenyl)(phenyl)methanone]: the MIC (in test [1]; with Candida albicans 90028; in the test on Cryptococcus gattii) was 0.1 to 1 µg/mL (≈ 0.281 to 2.81 µM) in each case. In addition, the minimal effective concentration in test [2] is 0.1 to 1 µg/mL; in test [3] it was 0.01 to 0.1 µg/mL.
As to `Nc1ncccc1-c1cc(Cc2ccc(CNc3ccc(F)c(F)c3F)cc2)no1` [compound 193, 3-(3-(4-(((2,3,4-trifluorophenyl)amino)methyl)benzyl)isoxazol-5-yl)pyridin-2-amine], the MIC (in test [1]; against Candida albicans 90028; in the test on Cryptococcus gattii) was 0.1 to 1 µg/mL (≈ 0.244 to 2.44 µM) each time. Further, the values for the minimal effective concentration in test [2] and in test [3] were 0.1 to 1 µg/mL and 0.01 to 0.1 µg/mL, respectively.
On to `Nc1ncccc1-c1cc(Cc2ccc(OCc3ccnc(Br)c3)nc2)no1` [compound 195, 3-(3-((6-((2-bromopyridin-4-yl)methoxy)pyridin-3-yl)methyl)isoxazol-5-yl)pyridin-2-amine], for which the MIC lay within 0.01 to 0.1 µg/mL (≈ 0.0228 to 0.228 µM) in test [1], 0.1 to 1 µg/mL (≈ 0.228 to 2.28 µM) against Candida albicans 90028 and 0.01 to 0.1 µg/mL (≈ 0.0228 to 0.228 µM) against Cryptococcus gattii. The minimal effective concentration in test [2] is above 1 µg/mL; in test [3], 0.1 to 1 µg/mL.
